This is an account of results in ChEMBL document CHEMBL3045064, “3D-QSAR of amino-substituted pyrido[3,2B]pyrazinones as PDE-5 inhibitors” (Med Chem Res, 2012).

The test addresses cGMP-specific 3',5'-cyclic phosphodiesterase (Homo sapiens, UniProt O76074). In words: Inhibition of PDE5 (unknown origin).
In turn, `O=c1c(NCC2CCOCC2)nc2ccc(-c3cnc(O)nc3)nc2n1CC1CCCCC1` showed an IC50 of 2.88 nM.

For the compound `O=c1c(NCCN2CCOCC2)nc2ccc(-c3ccc(O)nc3)nc2n1CC1CCCCC1`, half-maximal inhibition (IC50) required 537 nM. This IC50 is about 190-fold higher than that of the compound before.

`Cc1noc(C)c1-c1ccc2nc(NCCN3CCOCC3)c(=O)n(CC3CCCCC3)c2n1` had an IC50 of 36.3 nM.

The compound `COc1ccc(-c2ccc3nc(NCCN4CCOCC4)c(=O)n(CC4CCCCC4)c3n2)cn1` had an IC50 of 26.9 nM.

Turning to `COc1ccc(-c2ccc3nc(NCC4CCOCC4)c(=O)n(CC4CCCCC4)c3n2)cn1`, the IC50 was 2.29 nM.

For the compound `COc1ccc(-c2ccc3nc(NCC(=O)N(C)C)c(=O)n(CC4CCCCC4)c3n2)cn1`, the IC50 was 14.5 nM.

In the case of `O=c1c(NCC2CCOCC2)nc2ccc(-c3ccncc3)nc2n1CC1CCCCC1`, the IC50 was 33.9 nM.
